# Values of other authors in patent EP3360549A1, “SMALL MOLECULE THERAPEUTICS FOR TREATING METACHROMATIC LEUKODYSTROPHY” (Rheinische Friedrich-Wilhelms-Universität Bonn, priority 2017, dated 2018).
# System: sulfatides
# Conditions: mice, brain; reduction, along with cerebrosides and sphingomyelin
compound,measurement,value
CC(=O)CC(c1ccccc1)c1c(O)c2ccccc2oc1=O (stereo not shown) [Warfarin],reduce the levels of sulfatides,33%
